According to US20140323418A1, “SELECTIVE KINASE INHIBITORS” (PORTOLA PHARMACEUTICALS, INC., priority 2011, published 2014):

Each compound was assayed against T1, full length active recombinant SYK enzyme (Homo sapiens, UniProt P43405) (assay: Inhibition of Syk tyrosine phosphorylation activity (LANCE TR-FRET kinase assay)). Conditions: 1 nM SYK, 550 nM substrate, 100 μM ATP, 1 hour room temperature.
T1 construct: full length active recombinant SYK enzyme (Millipore, Calif.); purchased Millipore
Format: biochemical
With `CCn1ccc2c(Nc3nc(NC4CC4)ncc3C(N)=O)cccc21` [Example 114, 2-(cyclopropylamino)-4-(1-ethyl-1H-indol-4-ylamino)pyrimidine-5-carboxamide] the IC50 was 100 to 1000 nM. Compound `CCn1ccc2c(Nc3nc(NC(C)C)ncc3C(N)=O)cccc21` [Example 115, 4-(1-ethyl-1H-indol-4-ylamino)-2-(isopropylamino)pyrimidine-5-carboxamide] has an IC50 of 100 to 1000 nM. `CCn1ccc2c(Nc3nc(NCC(C)C)ncc3C(N)=O)cccc21` [Example 116, 4-(1-ethyl-1H-indol-4-ylamino)-2-(isobutylamino)pyrimidine-5-carboxamide] showed an IC50 of 100 to 1000 nM. `Cc1cccc(Nc2nc(NC3(CN)CC3)ncc2C(N)=O)c1` [Example 117, 4-(m-toluidino)-2-(1-(aminomethyl)cyclopropylamino)pyrimidine-5-carboxamide] showed an IC50 of 10 to 100 nM. `Cc1cccc(Nc2nc(N[C@H]3CC[C@@H](N)C3)ncc2C(N)=O)c1` [Example 118, 4-(m-toluidino)-2-((1S,3R)-3-aminocyclopentylamino)pyrimidine-5-carboxamide] showed an IC50 of 100 to 1000 nM. With `Cc1cccc(Nc2nc(N[C@@H]3CC[C@H](N)C3)ncc2C(N)=O)c1` [Example 119, 4-(m-toluidino)-2-((1R,3S)-3-aminocyclopentylamino)pyrimidine-5-carboxamide] the IC50 was 100 to 1000 nM. For `CC[C@@H](Nc1ncc(C(N)=O)c(Nc2cccc(C)c2)n1)C1(N)CC1` [Example 126, (R)-2-(1-(1-aminocyclopropyl)propylamino)-4-(m-tolylamino)pyrimidine-5-carboxamide], the IC50 was less than 1 nM. With `CC[C@H](Nc1ncc(C(N)=O)c(Nc2cccc(C)c2)n1)C1(N)CC1` [Example 128, (S)-2-(1-(1-aminocyclopropyl)propylamino)-4-(m-tolylamino)pyrimidine-5-carboxamide] the IC50 was 100 to 1000 nM. `CC[C@@H](Nc1ncc(C(N)=O)c(Nc2ccc(C)cc2)n1)C1(N)CC1` [Example 130, (R)-2-(1-(1-aminocyclopropyl)propylamino)-4-(p-tolylamino)pyrimidine-5-carboxamide] showed an IC50 of 1 to 10 nM. `CC[C@@H](Nc1ncc(C(N)=O)c(Nc2cccc(-c3ncccn3)c2)n1)C1(N)CC1` [Example 131, (R)-2-(1-(1-aminocyclopropyl)propylamino)-4-(3-(pyrimidin-2-yl)phenylamino)pyrimidine-5-carboxamide] gave an IC50 of 1 to 10 nM. In the case of `CC[C@@H](Nc1ncc(C(N)=O)c(Nc2cccc(-n3cccn3)c2)n1)C1(N)CC1` [Example 132, (R)-4-(3-(1H-pyrazol-1-yl)phenylamino)-2-(1-(1-aminocyclopropyl)propylamino)pyrimidine-5-carboxamide], the IC50 is reported as 1 to 10 nM. For `CC[C@@H](Nc1ncc(C(N)=O)c(Nc2cccc(C3=NCCCN3)c2)n1)C1(N)CC1` [Example 133, (R)-2-(1-(1-aminocyclopropyl)propylamino)-4-(3-(1,4,5,6-tetrahydropyrimidin-2-yl)phenylamino)pyrimidine-5-carboxamide], the IC50 was 100 to 1000 nM. Work on `NC(=O)c1cnc(N[C@@H](C2CC2)C2(N)CC2)nc1Nc1cccc(-c2ncccn2)c1` [Example 134, (S)-2-(1-(1-aminocyclopropyl)(cyclopropyl)methylamino)-4-(3-(pyrimidin-2-yl)phenylamino)pyrimidine-5-carboxamide] yielded an IC50 of 100 to 1000 nM. For `NC(=O)c1cnc(N[C@H](C2CC2)C2(N)CC2)nc1Nc1cccc(-c2ncccn2)c1` [Example 135, (R)-2-(1-(1-aminocyclopropyl)(cyclopropyl)methylamino)-4-(3-(pyrimidin-2-yl)phenylamino)pyrimidine-5-carboxamide], the IC50 was 1 to 10 nM. In the case of `CC(C)[C@@H](Nc1ncc(C(N)=O)c(Nc2cccc(-c3ncccn3)c2)n1)C1(N)CC1` [Example 136, (R)-2-(1-(1-aminocyclopropyl)-2-methylpropylamino)-4-(3-(pyrimidin-2-yl)phenylamino)pyrimidine-5-carboxamide], the IC50 is reported as 1 to 10 nM. `CC(C)[C@@H](Nc1ncc(C(N)=O)c(Nc2cccc(-n3nccn3)c2)n1)C1(N)CC1` [Example 138, (R)-4-(3-(2H-1,2,3-triazol-2-yl)phenylamino)-2-(1-(1-aminocyclopropyl)-2-methylpropylamino)pyrimidine-5-carboxamide] was tested, and the IC50 was 1 to 10 nM. Work on `CC(C)C[C@@H](Nc1ncc(C(N)=O)c(Nc2cccc(-n3cccn3)c2)n1)C1(N)CC1` [Example 139, (R)-4-(3-(1H-pyrazol-1-yl)phenylamino)-2-(1-(1-aminocyclopropyl)-3-methylbutylamino)pyrimidine-5-carboxamide] yielded an IC50 of 1 to 10 nM. For `CC(C)[C@@H](Nc1ncc(C(N)=O)c(Nc2cccc(-n3cccn3)c2)n1)C1(N)CC1` [Example 140, (R)-4-(3-(1H-pyrazol-1-yl)phenylamino)-2-(1-(1-aminocyclopropyl)-2-methylpropylamino)pyrimidine-5-carboxamide], the IC50 was 1 to 10 nM. `C[C@@H](Nc1ncc(C(N)=O)c(Nc2cccc(-c3ncccn3)c2)n1)C1(N)CC1` [Example 141, (R)-2-(1-(1-aminocyclopropyl)ethylamino)-4-(3-(pyrimidin-2-yl)phenylamino)pyrimidine-5-carboxamide] showed an IC50 of 1 to 10 nM. `C[C@@H](Nc1ncc(C(N)=O)c(Nc2cccc(-n3cccn3)c2)n1)C1(N)CC1` [Example 143, (R)-4-(3-(1H-pyrazol-1-yl)phenylamino)-2-(1-(1-aminocyclopropyl)ethylamino)pyrimidine-5-carboxamide] was tested, and the IC50 was 1 to 10 nM. With `Cc1cccc(Nc2nc(N[C@H](C(C)C)C3(N)CC3)ncc2C(N)=O)c1` [Example 144, (R)-2-(1-(1-aminocyclopropyl)-2-methylpropylamino)-4-(m-tolylamino)pyrimidine-5-carboxamide] the IC50 was 1 to 10 nM. `Cc1cccc(Nc2nc(N[C@H](C)C3(N)CC3)ncc2C(N)=O)c1` [Example 145, (R)-2-(1-(1-aminocyclopropyl)ethylamino)-4-(m-tolylamino)pyrimidine-5-carboxamide] showed an IC50 of 1 to 10 nM. In the case of `Cc1ccc(Nc2nc(N[C@H](C)C3(N)CC3)ncc2C(N)=O)cc1` [Example 146, (R)-2-(1-(1-aminocyclopropyl)ethylamino)-4-(p-tolylamino)pyrimidine-5-carboxamide], the IC50 is reported as 10 to 100 nM. Work on `Cc1cccc(Nc2nc(N[C@H](c3ccccc3)C3(N)CC3)ncc2C(N)=O)c1` [Example 147, (R)-2-(1-(1-aminocyclopropyl)(phenyl)methylamino)-4-(m-tolylamino)pyrimidine-5-carboxamide] yielded an IC50 of 10 to 100 nM. Compound `Cc1cccc(Nc2nc(N[C@@H](c3ccccc3)C3(N)CC3)ncc2C(N)=O)c1` [Example 148, (5)-2-(1-(1-aminocyclopropyl)(phenyl)methylamino)-4-(m-tolylamino)pyrimidine-5-carboxamide] has an IC50 of 100 to 1000 nM. With `NC(=O)c1cnc(N[C@H](c2ccccc2)C2(N)CC2)nc1Nc1cccc(-n2nccn2)c1` [Example 149, (R)-4-(3-(2H-1,2,3-triazol-2-yl)phenylamino)-2-(1-(1-aminocyclopropyl)(phenyl)methylamino)pyrimidine-5-carboxamide] the IC50 was 10 to 100 nM. `NC(=O)c1cnc(N[C@H](c2ccccc2)C2(N)CC2)nc1Nc1cccc(-c2ncccn2)c1` [Example 150, (R)-2-(1-(1-aminocyclopropyl)(phenyl)methylamino)-4-(3-(pyrimidin-2-yl)phenylamino)pyrimidine-5-carboxamide] was tested, and the IC50 was 10 to 100 nM. With `NC(=O)c1cnc(N[C@H](C2CC2)C2(N)CC2)nc1Nc1cccc(-n2cccn2)c1` [Example 151, (R)-4-(3-(1H-pyrazol-1-yl)phenylamino)-2-(1-(1-aminocyclopropyl)(cyclopropyl)methylamino)pyrimidine-5-carboxamide] the IC50 was 1 to 10 nM. `NC(=O)c1cnc(N[C@H](C2CC2)C2(N)CC2)nc1Nc1cnc2ccccc2c1` [Example 152, (R)-2-(1-(1-aminocyclopropyl)(cyclopropyl)methylamino)-4-(quinolin-3-ylamino)pyrimidine-5-carboxamide] gave an IC50 of 1 to 10 nM. Work on `NC(=O)c1cnc(N[C@H](C2CC2)C2(N)CC2)nc1Nc1ccc2c(c1)CCCN2` [Example 153, (R)-2-(1-(1-aminocyclopropyl)(cyclopropyl)methylamino)-4-(1,2,3,4-tetrahydroquinolin-6-ylamino)pyrimidine-5-carboxamide] yielded an IC50 of 10 to 100 nM. With `CC[C@@H](Nc1ncc(C(N)=O)c(Nc2cnc3ccccc3c2)n1)C1(N)CC1` [Example 154, (R)-2-(1-(1-aminocyclopropyl)propylamino)-4-(quinolin-3-ylamino)pyrimidine-5-carboxamide] the IC50 was 1 to 10 nM. With `NC(=O)c1cnc(N[C@H](C2CC2)C2(N)CC2)nc1Nc1ccc2ncccc2c1` [Example 155, (R)-2-(1-(1-aminocyclopropyl)(cyclopropyl)methylamino)-4-(quinolin-6-ylamino)pyrimidine-5-carboxamide] the IC50 was 1 to 10 nM. In the case of `NC(=O)c1cnc(N[C@H](C2CC2)C2(N)CC2)nc1Nc1cccc(F)c1` [Example 156, (R)-2-(1-(1-aminocyclopropyl)(cyclopropyl)methylamino)-4-(3-fluorophenylamino)pyrimidine-5-carboxamide], the IC50 is reported as 1 to 10 nM. `NC(=O)c1cnc(N[C@H](C2CC2)C2(N)CC2)nc1Nc1cc(F)cc(F)c1` [Example 157, (R)-2-(1-(1-aminocyclopropyl)(cyclopropyl)methylamino)-4-(3,5-difluorophenylamino)pyrimidine-5-carboxamide] was tested, and the IC50 was 10 to 100 nM. `CC(C)[C@@H](Nc1ncc(C(N)=O)c(Nc2cnc3ccccc3c2)n1)C1(N)CC1` [Example 158, (R)-2-(1-(1-aminocyclopropyl)-2-methylpropylamino)-4-(quinolin-3-ylamino)pyrimidine-5-carboxamide] was tested, and the IC50 was 1 to 10 nM. In the case of `CC(C)[C@@H](Nc1ncc(C(N)=O)c(Nc2cccc(F)c2)n1)C1(N)CC1` [Example 159, (R)-2-(1-(1-aminocyclopropyl)-2-methylpropylamino)-4-(3-fluorophenylamino)pyrimidine-5-carboxamide], the IC50 is reported as 1 to 10 nM. In the case of `CC(C)[C@@H](Nc1ncc(C(N)=O)c(Nc2cc(F)cc(F)c2)n1)C1(N)CC1` [Example 160, (R)-2-(1-(1-aminocyclopropyl)-2-methylpropylamino)-4-(3,5-difluorophenylamino)pyrimidine-5-carboxamide], the IC50 is reported as 10 to 100 nM.
